We go through 23 compounds from PubChem BioAssay AID330 (DTP/NCI, 2004).

“And” between values parts separate entries of the source, which are not always exact repeats. Equal values may be shown once. Inconclusive results and toxic doses are left out.

The subject of this experiment is P388 leukemia ip, CD2F1 mice, survival T/C. In words: NCI In Vivo Anticancer Drug Screen. Data for tumor model P388 Leukemia (intraperitoneal) in CD2F1 (CDF1) mice. Particulars: endpoint: median survival time, higher = longer survival. The method, boiled down:
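Mice carrying the transplanted tumor received test compound or vehicle. Survival was recorded in each group, and the value is the treated-group measurement divided by that of the vehicle-treated control group.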

Setting [1] is: dose: 100.0 mg/kg/injection, schedule: Q01DX009 (ip), vehicle: saline with Tween-80.
The mark [2] stands for this setting: dose: 200.0 mg/kg/injection, schedule: Q01DX009 (ip), vehicle: saline with Tween-80.
Where [3] appears, read: dose: 50.0 mg/kg/injection, schedule: Q01DX005 (ip), vehicle: Klucel (hydroxypropylcellulose) (HPC).
Setting [4] is: dose: 60.0 mg/kg/injection, schedule: Q01DX005 (ip), vehicle: saline.
Where [5] appears, read: dose: 120.0 mg/kg/injection, schedule: Q01DX005 (ip), vehicle: saline.
The mark [6] stands for this setting: dose: 100.0 mg/kg/injection, schedule: Q01DX001 (ip), vehicle: Klucel (hydroxypropylcellulose) (HPC).
Where [7] appears, read: dose: 200.0 mg/kg/injection, schedule: Q01DX001 (ip), vehicle: Klucel (hydroxypropylcellulose) (HPC).
Setting [8] is: dose: 400.0 mg/kg/injection, schedule: Q01DX001 (ip), vehicle: Klucel (hydroxypropylcellulose) (HPC).
Where [9] appears, read: dose: 50.0 mg/kg/injection, schedule: Q01DX009 (ip), vehicle: Klucel (hydroxypropylcellulose) (HPC).
Where [10] appears, read: dose: 100.0 mg/kg/injection, schedule: Q01DX009 (ip), vehicle: Klucel (hydroxypropylcellulose) (HPC).
[11] abbreviates: dose: 240.0 mg/kg/injection, schedule: Q01DX005 (ip), vehicle: saline.
The mark [12] stands for this setting: dose: 50.0 mg/kg/injection, schedule: Q01DX005 (ip), vehicle: saline with Tween-80.
The mark [13] stands for this setting: dose: 100.0 mg/kg/injection, schedule: Q01DX005 (ip), vehicle: saline with Tween-80.
Setting [14] is: dose: 200.0 mg/kg/injection, schedule: Q01DX005 (ip), vehicle: saline with Tween-80.

`Cc1c(-c2ccc(-c3ccccc3F)cc2)nc2ccc(F)cc2c1C(=O)O`: the T/C (dose: 5.62 mg/kg/injection, schedule: Q01DX005 (ip), vehicle: water) was 120 % of control; the T/C (dose: 11.25 mg/kg/injection, schedule: Q01DX005 (ip), vehicle: water) is 121 % of control; the T/C (dose: 45.0 mg/kg/injection, schedule: Q01DX005 (ip), vehicle: water) was 157 % of control; the T/C (dose: 90.0 mg/kg/injection, schedule: Q01DX005 (ip), vehicle: water) is 158 % of control.
Regarding `NC(CCC(=O)O)(C(=O)O)c1ccccc1` (stereo not drawn), the T/C runs as follows: (dose: 0.19 mg/kg/injection, schedule: Q01DX009 (ip), vehicle: saline) 101 % of control; (dose: 0.38 mg/kg/injection, schedule: Q01DX009 (ip), vehicle: saline) 104 % of control; (dose: 0.75 mg/kg/injection, schedule: Q01DX009 (ip), vehicle: saline) 100 % of control; (dose: 1.5 mg/kg/injection, schedule: Q01DX009 (ip), vehicle: saline with Tween-80) 98 % of control; (dose: 1.5 mg/kg/injection, schedule: Q01DX009 (ip), vehicle: saline) 109 % of control; (dose: 3.0 mg/kg/injection, schedule: Q01DX009 (ip), vehicle: saline with Tween-80) 98 % of control. Also, the T/C is, setting by setting: under setting [1], 92 % of control; under setting [2], 93 % of control.
As for `C=NN(C)C`, the T/C (dose: 2.39 mg/kg/injection, schedule: Q01DX009 (ip), vehicle: Klucel (hydroxypropylcellulose) (HPC)) was 95 % of control; the T/C (dose: 4.75 mg/kg/injection, schedule: Q01DX009 (ip), vehicle: Klucel (hydroxypropylcellulose) (HPC)) was 102 % of control; the T/C (dose: 9.5 mg/kg/injection, schedule: Q01DX009 (ip), vehicle: Klucel (hydroxypropylcellulose) (HPC)) was 103 % of control; the T/C (dose: 19.0 mg/kg/injection, schedule: Q01DX009 (ip), vehicle: Klucel (hydroxypropylcellulose) (HPC)) was 105 % of control.
Take `O=C1C=C(OCc2ccccc2)C(=O)C(OCc2ccccc2)=C1`: the T/C by setting is: under setting [3], 94 % of control; (dose: 100.0 mg/kg/injection, schedule: Q01DX005 (ip), vehicle: Klucel (hydroxypropylcellulose) (HPC)) 100 % of control; (dose: 200.0 mg/kg/injection, schedule: Q01DX005 (ip), vehicle: Klucel (hydroxypropylcellulose) (HPC)) 104 % of control.
As to `CC(C)CCC[C@@H](C)[C@H]1CC[C@H]2[C@@H]3CC[C@H]4C[C@H](N)CC[C@]4(C)[C@H]3CC[C@]12C`, the T/C is 100 % of control (dose: 12.5 mg/kg/injection, schedule: Q01DX005 (ip), vehicle: Klucel (hydroxypropylcellulose) (HPC)); 93 % of control (dose: 25.0 mg/kg/injection, schedule: Q01DX005 (ip), vehicle: Klucel (hydroxypropylcellulose) (HPC)); 112 % of control and 97 % of control under setting [3].
As to `ClCC1(CCl)COC(c2ccccc2)OC1`, the T/C is 100 % of control under setting [1]; 100 % of control under setting [2]; 95 % of control (dose: 400.0 mg/kg/injection, schedule: Q01DX009 (ip), vehicle: saline with Tween-80).
For the compound `CCc1c(-c2ccc(Cl)cc2)nc(N)nc1-c1nc(N)nc(-c2ccc(Cl)cc2)c1CC`, the T/C reads like this: under setting [4], 100 % of control; under setting [5], 100 % of control.
In the case of `COCC1(C)CCCC2(C)C1CCC13CCCCC12O3` (stereo not drawn), the T/C by setting is: under setting [6], 100 % of control; under setting [7], 100 % of control; under setting [8], 100 % of control.
For `NC(c1cccc([N+](=O)[O-])c1)S(=O)(=O)O` (stereo not drawn), the T/C is 99 % of control (dose: 100.0 mg/kg/injection, schedule: Q04DX002 (ip), vehicle: saline); 105 % of control (dose: 200.0 mg/kg/injection, schedule: Q04DX002 (ip), vehicle: saline); 105 % of control (dose: 400.0 mg/kg/injection, schedule: Q04DX002 (ip), vehicle: saline).
For `CCCN1C(=O)Cc2ccccc21`, the T/C under setting [6] is 95 % of control, the T/C under setting [7] was 97 % of control and the T/C under setting [8] was 100 % of control.
For the compound `O=C(Nc1cccc(Cl)c1)N1CCNC1=S`, the T/C under setting [9] was 102 % of control and the T/C under setting [10] was 104 % of control.
On to `CCC[C@@H](O)CC(=O)N[C@@H](CO)c1ccccc1`, for which the T/C by setting is: under setting [4], 96 % of control; under setting [5], 95 % of control; under setting [11], 96 % of control.
Regarding `COc1ccc(CCNCC(O)CO/N=C(\C)c2ccc(N(C)C)cc2)cc1OC` (stereo not drawn), the T/C (dose: 60.0 mg/kg/injection, schedule: Q01DX005 (ip), vehicle: Klucel (hydroxypropylcellulose) (HPC)) was 104 % of control; the T/C (dose: 120.0 mg/kg/injection, schedule: Q01DX005 (ip), vehicle: Klucel (hydroxypropylcellulose) (HPC)) is 101 % of control; the T/C (dose: 240.0 mg/kg/injection, schedule: Q01DX005 (ip), vehicle: Klucel (hydroxypropylcellulose) (HPC)) was 97 % of control.
Turning to `Cc1cc(C)n2c(-c3ccccc3)c(C)c(C#N)c2n1`, the T/C by setting is: (dose: 60.0 mg/kg/injection, schedule: Q01DX005 (ip), vehicle: saline with Tween-80) 106 % of control; (dose: 120.0 mg/kg/injection, schedule: Q01DX005 (ip), vehicle: saline with Tween-80) 100 % of control; (dose: 240.0 mg/kg/injection, schedule: Q01DX005 (ip), vehicle: saline with Tween-80) 91 % of control.
With `COc1cc(-c2ccc(O)cc2)c(OC)c(O)c1-c1ccc(O)c(O)c1`, the T/C reads like this: (dose: 0.6 mg/kg/injection, schedule: Q01DX009 (ip), vehicle: saline) 100 % of control; (dose: 1.2 mg/kg/injection, schedule: Q01DX009 (ip), vehicle: saline) 95 % of control; (dose: 10.0 micrograms/kg/injection, schedule: Q01DX009 (ip), vehicle: saline with Tween-80) 111 % of control; (dose: 20.0 micrograms/kg/injection, schedule: Q01DX009 (ip), vehicle: saline with Tween-80) 105 % of control; (dose: 40.0 micrograms/kg/injection, schedule: Q01DX009 (ip), vehicle: saline with Tween-80) 104 % of control; (dose: 80.0 micrograms/kg/injection, schedule: Q01DX009 (ip), vehicle: saline with Tween-80) 105 % of control.
Turning to `Cc1ccc(S(=O)(=O)OI(O)c2ccccc2)cc1`, the T/C is 108 % of control (dose: 50.0 mg/kg/injection, schedule: Q01DX009 (ip), vehicle: water) and 104 % of control (dose: 100.0 mg/kg/injection, schedule: Q01DX009 (ip), vehicle: water).
For `CCCCCCOCCN1CCN(CCCN2c3ccccc3Sc3ccc(C(F)(F)F)cc32)CC1`, the T/C (dose: 3.12 mg/kg/injection, schedule: Q01DX009 (ip), vehicle: saline with Tween-80) was 100 % of control.
For the compound `[Cl][Pt+2][Cl].[NH-]c1nc2ccc(Br)cc2s1.[NH-]c1nc2ccc(Br)cc2s1`, the T/C was 103 % of control (dose: 100.0 mg/kg/injection, schedule: Q04DX002 (ip), vehicle: saline with Tween-80) and 91 % of control (dose: 200.0 mg/kg/injection, schedule: Q04DX002 (ip), vehicle: saline with Tween-80).
In the case of `CC(C)=NNC1=NC(C)(C)P(=O)(NCC(=O)O)S1` (stereo not drawn), the T/C by setting is: under setting [4], 103 % of control; under setting [5], 103 % of control; under setting [11], 100 % of control.
Consider `CC12CC3(C)CC(C)(C1)CC(C(Cl)C(=O)NC1CCCCC1)(C2)C3` (stereo not drawn), for which the T/C is, setting by setting: under setting [9], 110 % of control; under setting [10], 107 % of control; (dose: 200.0 mg/kg/injection, schedule: Q01DX009 (ip), vehicle: Klucel (hydroxypropylcellulose) (HPC)) 97 % of control.
On to `CCOC(=O)C(=O)C(C(=O)c1ccccn1)c1nc2n(c1O)C(=N)N=N2` (stereo not drawn), for which the T/C under setting [12] is 102 % of control, the T/C under setting [13] was 94 % of control and the T/C under setting [14] was 87 % of control.
For `CN1C2=C(C(=O)CCC2)C(c2ccccc2)C2=C1CCCC2=O`, in that order: 103 % of control, 100 % of control and 98 % of control.
As for `CCCCCCN(CCCCCC)C(=N)c1ccnc2ccccc12`, the T/C is 92 % of control (dose: 12.5 mg/kg/injection, schedule: Q01DX005 (ip), vehicle: saline); 100 % of control (dose: 25.0 mg/kg/injection, schedule: Q01DX005 (ip), vehicle: saline); 87 % of control and 94 % of control (dose: 50.0 mg/kg/injection, schedule: Q01DX005 (ip), vehicle: saline).
